The text below walks through data of patent publication US20230219986A1, “NOVEL AMINOPYRIMIDINE EGFR INHIBITOR” (QILU PHARMACEUTICAL CO., LTD., priority 2020, published 2023).

Structures can show the parent of a compound that is named as a salt. Where two headings read alike, the source gives them in different places. A value given as a limit tells only on which side of the number the result lay.

Assay [1] deals with T1, wild-type EGFR (Homo sapiens, UniProt P00533).
T1 construct: purchased Signalchem
T1 sequence (P00533 25-1210): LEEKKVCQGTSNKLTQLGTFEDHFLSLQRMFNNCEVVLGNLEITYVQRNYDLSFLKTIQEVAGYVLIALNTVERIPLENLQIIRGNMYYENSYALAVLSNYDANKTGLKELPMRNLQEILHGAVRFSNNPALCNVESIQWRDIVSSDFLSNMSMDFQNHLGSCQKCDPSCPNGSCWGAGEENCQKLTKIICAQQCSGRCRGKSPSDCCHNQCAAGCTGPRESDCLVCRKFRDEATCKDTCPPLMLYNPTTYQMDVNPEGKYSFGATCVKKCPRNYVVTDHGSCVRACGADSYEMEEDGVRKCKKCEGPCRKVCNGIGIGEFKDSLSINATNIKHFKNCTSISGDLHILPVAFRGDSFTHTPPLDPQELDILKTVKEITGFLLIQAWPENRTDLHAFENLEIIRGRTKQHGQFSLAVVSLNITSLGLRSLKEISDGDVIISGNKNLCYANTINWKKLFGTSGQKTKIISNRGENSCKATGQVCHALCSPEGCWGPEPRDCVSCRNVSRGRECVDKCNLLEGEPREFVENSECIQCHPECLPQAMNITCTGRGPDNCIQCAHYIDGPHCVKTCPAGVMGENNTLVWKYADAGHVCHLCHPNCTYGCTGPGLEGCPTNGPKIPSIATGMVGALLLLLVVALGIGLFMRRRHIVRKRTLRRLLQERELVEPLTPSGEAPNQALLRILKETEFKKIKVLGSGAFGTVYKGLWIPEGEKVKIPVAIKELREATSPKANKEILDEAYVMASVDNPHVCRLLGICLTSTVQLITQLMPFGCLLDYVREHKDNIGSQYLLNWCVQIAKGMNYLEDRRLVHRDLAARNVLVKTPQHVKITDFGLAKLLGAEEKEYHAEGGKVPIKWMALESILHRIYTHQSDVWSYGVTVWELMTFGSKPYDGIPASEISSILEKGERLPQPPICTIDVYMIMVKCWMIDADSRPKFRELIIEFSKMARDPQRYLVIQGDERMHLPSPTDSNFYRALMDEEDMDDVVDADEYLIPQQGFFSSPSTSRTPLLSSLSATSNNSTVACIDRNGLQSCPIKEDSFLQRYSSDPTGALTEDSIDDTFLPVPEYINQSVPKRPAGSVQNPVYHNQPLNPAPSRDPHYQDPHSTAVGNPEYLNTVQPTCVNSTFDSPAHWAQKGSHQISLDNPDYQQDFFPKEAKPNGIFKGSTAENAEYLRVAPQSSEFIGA
In words: Enzymology experiment in vitro (HTRF/FRET kinase activity), wild-type EGFR. In kind it is biochemical. The conditions noted are these: HTRF KinEASE-TK, read-out: EGFR (WT) IC50. The procedure:
(§1) 1. Experimental Materials
(§2) HTRF KinEASE-TK kit detection reagent, purchased from Cisbio
(§3) 1) 10 nL of gradient diluted compound was transferred into a 384-well experimental plate using Echo 550 (Labcyte).
(§4) 2) 5 μL of 2×EGFR enzyme solution was added to the 384-well experimental plate and incubated at room temperature for 10 minutes.
(§5) 3) 5 μL of 2× substrate solution containing polypeptide and ATP was added to the 384-well experimental plate and incubated at room temperature for 40 minutes.
(§6) 4) 10 μL of detection solution containing EDTA, XL665-labeled streptavidin and Eu^3+-labeled antibody was added thereto and incubated at room temperature for 1 hour.
In general terms: TR-FRET usually uses a lanthanide donor and a delayed reading to cut background.

The target in assay [2] is Ba/F3 De119/T790M/C797S EGFR triple mutant cell line (Homo sapiens, UniProt P00533, T790M/C797S, cells depend on it, form not given). In words: Cell proliferation inhibition experiment (CellTiter-Glo), Ba/F3 De119/T790M/C797S. The conditions noted are these: Ba/F3 Del19/T790M/C797S EGFR triple mutant cells, 72 hours, Cell Titer-Glo; read-out: Ba/F3 (Del19/T790M/C797S) IC50. In kind it is cell-based. The protocol: (§7) 3) 30 nL of gradient diluted compound was transferred into the 384-well experimental plate using Echo 550 (Labcyte) at a DMSO final concentration of 0.1%, and the culture plate was incubated in a cell incubator for 72 hours (37° C., 5% CO2).
Sequence of Ba/F3 De119/T790M/C797S EGFR triple mutant cell line (P00533 with tags, fused parts or gaps DEL746-750/T790M/C797S, form open): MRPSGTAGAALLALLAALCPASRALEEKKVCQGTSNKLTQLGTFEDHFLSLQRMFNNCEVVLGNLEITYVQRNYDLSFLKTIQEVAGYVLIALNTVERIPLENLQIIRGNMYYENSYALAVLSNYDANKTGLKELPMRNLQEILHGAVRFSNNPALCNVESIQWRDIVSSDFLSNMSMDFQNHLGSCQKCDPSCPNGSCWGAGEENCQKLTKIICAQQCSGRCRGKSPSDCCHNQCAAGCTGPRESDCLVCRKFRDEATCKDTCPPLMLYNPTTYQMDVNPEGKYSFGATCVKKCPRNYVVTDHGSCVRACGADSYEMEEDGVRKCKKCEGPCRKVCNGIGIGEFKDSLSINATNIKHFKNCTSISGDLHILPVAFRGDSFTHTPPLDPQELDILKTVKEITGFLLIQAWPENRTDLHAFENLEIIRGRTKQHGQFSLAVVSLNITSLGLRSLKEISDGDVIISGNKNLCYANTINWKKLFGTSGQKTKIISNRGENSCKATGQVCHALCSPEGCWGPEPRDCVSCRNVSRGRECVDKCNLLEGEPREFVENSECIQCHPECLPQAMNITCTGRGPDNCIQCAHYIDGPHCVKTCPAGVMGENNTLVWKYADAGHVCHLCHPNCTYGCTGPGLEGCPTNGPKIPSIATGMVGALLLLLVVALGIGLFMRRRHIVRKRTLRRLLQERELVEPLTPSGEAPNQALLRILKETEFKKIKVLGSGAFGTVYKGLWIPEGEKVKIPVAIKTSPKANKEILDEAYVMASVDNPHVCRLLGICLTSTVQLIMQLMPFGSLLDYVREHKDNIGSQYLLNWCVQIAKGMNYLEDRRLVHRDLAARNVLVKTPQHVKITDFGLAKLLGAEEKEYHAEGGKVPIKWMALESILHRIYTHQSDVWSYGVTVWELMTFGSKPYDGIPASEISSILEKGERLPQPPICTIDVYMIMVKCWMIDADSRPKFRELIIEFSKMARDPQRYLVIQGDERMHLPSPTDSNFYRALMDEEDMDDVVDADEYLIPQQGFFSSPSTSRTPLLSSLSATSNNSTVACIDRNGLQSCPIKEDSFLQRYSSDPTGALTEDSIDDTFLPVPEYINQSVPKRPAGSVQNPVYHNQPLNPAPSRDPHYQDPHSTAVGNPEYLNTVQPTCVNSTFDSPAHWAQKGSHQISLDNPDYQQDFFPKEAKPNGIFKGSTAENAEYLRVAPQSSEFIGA
(§8) 4) 30 μL of Cell Titer-Glo reagent was added to each well and left for 30 minutes at room temperature and protected from light.
(§9) 5) Envision microplate reader (PerkinElmer) detected chemiluminescence signals.
(§10) 6) GraphPad Prism 8 software was used for data analysis to obtain the IC50 of the compounds of the present disclosure and the positive control.
In general terms: In ATP-based viability assays light output follows the ATP content of the culture.

Assay [3] deals with T2, L858R/T790M/C797S triple mutant EGFR (Homo sapiens, UniProt P00533, C797S/L858R/T790M).
T2 construct: purchased Signalchem
T2 sequence (P00533 25-1210 T790M/C797S/L858R): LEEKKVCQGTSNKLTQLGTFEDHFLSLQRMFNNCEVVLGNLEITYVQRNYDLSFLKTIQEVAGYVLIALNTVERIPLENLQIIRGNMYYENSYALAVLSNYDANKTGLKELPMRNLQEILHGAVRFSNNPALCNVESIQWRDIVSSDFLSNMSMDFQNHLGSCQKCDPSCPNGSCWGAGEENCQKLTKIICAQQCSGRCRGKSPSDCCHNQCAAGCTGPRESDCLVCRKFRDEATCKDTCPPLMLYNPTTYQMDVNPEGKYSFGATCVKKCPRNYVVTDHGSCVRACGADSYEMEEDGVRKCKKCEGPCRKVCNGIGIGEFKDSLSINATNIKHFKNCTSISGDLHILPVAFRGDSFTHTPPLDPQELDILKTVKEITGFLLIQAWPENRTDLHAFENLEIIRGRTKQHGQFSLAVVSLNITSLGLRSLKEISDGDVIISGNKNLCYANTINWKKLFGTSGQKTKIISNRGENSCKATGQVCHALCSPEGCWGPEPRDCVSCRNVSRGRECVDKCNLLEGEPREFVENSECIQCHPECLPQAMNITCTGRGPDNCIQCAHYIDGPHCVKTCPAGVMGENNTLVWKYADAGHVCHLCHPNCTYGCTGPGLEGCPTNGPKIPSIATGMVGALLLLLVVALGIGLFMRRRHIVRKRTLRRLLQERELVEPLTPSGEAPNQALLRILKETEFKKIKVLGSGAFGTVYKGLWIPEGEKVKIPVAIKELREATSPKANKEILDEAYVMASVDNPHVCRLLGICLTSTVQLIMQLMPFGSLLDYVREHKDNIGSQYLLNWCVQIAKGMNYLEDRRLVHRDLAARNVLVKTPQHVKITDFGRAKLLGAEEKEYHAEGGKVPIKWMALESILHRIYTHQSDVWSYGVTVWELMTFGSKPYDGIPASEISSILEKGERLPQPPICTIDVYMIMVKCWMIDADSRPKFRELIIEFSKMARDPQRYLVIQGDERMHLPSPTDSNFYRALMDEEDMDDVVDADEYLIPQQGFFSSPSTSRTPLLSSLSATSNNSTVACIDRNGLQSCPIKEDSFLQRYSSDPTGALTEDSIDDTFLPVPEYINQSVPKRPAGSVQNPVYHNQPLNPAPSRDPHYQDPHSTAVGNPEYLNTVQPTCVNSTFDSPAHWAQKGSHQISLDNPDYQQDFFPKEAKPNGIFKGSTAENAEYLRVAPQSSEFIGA
Briefly: Enzymology experiment in vitro (HTRF/FRET kinase activity), L858R/T790M/C797S triple mutant EGFR. In kind it is biochemical. The conditions noted are these: HTRF KinEASE-TK, read-out: EGFR (L858R/T790M/C797S) IC50. The protocol: as §1, §2, §3, §4, §5, §6

In assay [4] the target is Ba/F3 L858R/T790M/C797S EGFR triple mutant cell line (Homo sapiens, UniProt P00533, T790M/C797S/L858R, cells depend on it). Briefly: Cell proliferation inhibition experiment (CellTiter-Glo), Ba/F3 L858R/T790M/C797S. In kind it is cell-based. The conditions noted are these: 72 hours, Cell Titer-Glo, read-out: Ba/F3 (L858R/T790M/C797S) IC50. The protocol: as §7, §8, §9, §10
Sequence of Ba/F3 L858R/T790M/C797S EGFR triple mutant cell line (P00533 whole entry T790M/C797S/L858R): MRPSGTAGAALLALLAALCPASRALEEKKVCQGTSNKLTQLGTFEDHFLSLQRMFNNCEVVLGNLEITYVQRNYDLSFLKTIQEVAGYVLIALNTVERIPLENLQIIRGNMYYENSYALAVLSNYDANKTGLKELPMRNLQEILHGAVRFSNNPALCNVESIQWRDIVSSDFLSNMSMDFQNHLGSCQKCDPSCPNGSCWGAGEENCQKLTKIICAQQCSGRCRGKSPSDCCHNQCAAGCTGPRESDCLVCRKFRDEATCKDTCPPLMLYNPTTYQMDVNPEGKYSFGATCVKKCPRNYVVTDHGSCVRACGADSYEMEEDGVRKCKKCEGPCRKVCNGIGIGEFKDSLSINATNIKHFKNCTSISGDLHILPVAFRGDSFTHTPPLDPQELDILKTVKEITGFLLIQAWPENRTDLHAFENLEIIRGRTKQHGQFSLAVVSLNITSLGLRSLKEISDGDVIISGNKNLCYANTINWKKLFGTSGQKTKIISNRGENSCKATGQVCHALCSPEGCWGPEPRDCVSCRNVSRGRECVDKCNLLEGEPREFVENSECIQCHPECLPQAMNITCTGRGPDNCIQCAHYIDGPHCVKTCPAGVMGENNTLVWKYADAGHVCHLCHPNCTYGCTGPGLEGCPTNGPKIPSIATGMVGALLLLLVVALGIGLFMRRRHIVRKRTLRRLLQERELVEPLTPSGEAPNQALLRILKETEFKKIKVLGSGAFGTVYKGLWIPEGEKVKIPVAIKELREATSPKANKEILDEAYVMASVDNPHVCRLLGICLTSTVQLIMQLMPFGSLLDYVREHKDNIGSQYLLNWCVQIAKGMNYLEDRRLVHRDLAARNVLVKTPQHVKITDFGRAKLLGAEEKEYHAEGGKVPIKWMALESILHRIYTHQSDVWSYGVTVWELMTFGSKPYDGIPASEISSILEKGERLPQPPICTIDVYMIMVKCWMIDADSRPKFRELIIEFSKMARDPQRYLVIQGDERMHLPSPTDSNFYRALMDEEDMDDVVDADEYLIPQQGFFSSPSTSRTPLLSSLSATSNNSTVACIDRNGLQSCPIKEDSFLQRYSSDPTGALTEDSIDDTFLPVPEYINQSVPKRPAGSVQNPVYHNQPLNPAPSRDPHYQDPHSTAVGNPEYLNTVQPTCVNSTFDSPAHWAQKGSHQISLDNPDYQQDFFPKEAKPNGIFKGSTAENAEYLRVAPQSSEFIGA

In assay [5] the test system is EGFR wild-type cell line A431. Briefly: Cell proliferation inhibition experiment (CellTiter-Glo), A431. As to conditions: Homo sapiens, A431 cells, Cell Titer-Glo, read-out: A431 EGFR WT IC50. In kind it is cell-based. The protocol: A431 cells, purchased from ATCC.
1) A431 cells were inoculated in a 384-well culture plate at a density of 800 cells per well, 30 μL per well, placed in a cell incubator, and cultured for 24 hours (37° C., 5% CO2).
as §7, §8, §9, §10

For the compound `COc1cc(N2CCOCC2)c(-c2cnn(C)c2)cc1Nc1ncc(Br)c(Nc2ccccc2P(C)(C)=O)n1` [Compound 2, (2-((5-bromo-2-((2-methoxy-5-(1-methyl-1H-pyrazol-4-yl)-4-morpholinylphenyl)amino)pyrimidin-4-yl)amino)phenyl)dimethylphosphine oxide], the IC50 in assay [1] worked out at 18 nM; in assay [3] it was 0.09 nM; in assay [5] (A-431, 72 h) it was 316 nM. The GI50 in assay [2] amounted to 4.21 nM; in assay [4], 17.5 nM.
For the compound `COc1cc(N2CCN(C)CC2)c(-c2cnn(C)c2)cc1Nc1ncc(Br)c(Nc2ccc3nccnc3c2P(C)(C)=O)n1` [Compound 6], the IC50 in assay [1] is 0.17 nM; in assay [3], below 0.05 nM; in assay [5] (A-431, 72 h) it was 24.5 nM. Further, the GI50 was found to be 1.99 nM in assay [2] and 5.96 nM in assay [4].
The matching figures for `COc1nc(N2CCOCC2)c(-c2cnn(C)c2)cc1Nc1ncc(Br)c(Nc2ccc3nccnc3c2P(C)(C)=O)n1` [Compound 7, (6-((5-bromo-2-((2-methoxy-5-(1-methyl-1H-pyrazol-4-yl)-6-morpholinylpyridin-3-yl)amino)pyrimidin-4-yl)amino)quinoxalin-5-yl)dimethylphosphine oxide]: 9.88 nM, 0.23 nM, 159 nM, 4.43 nM and 14.8 nM.
With `COc1cc(N2CCOCC2)c(-c2cnn(S(=O)(=O)C3CC3)c2)cc1Nc1ncc(Br)c(Nc2ccc3nccnc3c2P(C)(C)=O)n1` [Compound 8, (6-((5-bromo-2-((5-(1-(cyclopropylsulfonyl)-1H-pyrazol-4-yl)-2-methoxy-4-morpholinylphenyl)amino)pyrimidin-4-yl)amino)quinoxalin-5-yl)dimethylphosphine oxide], the IC50 in assay [1] was 358 nM; in assay [3], 3.19 nM; in assay [5] (A-431, 72 h), 769 nM. The GI50 came out at 69 nM in assay [2] and 137 nM in assay [4].
Taken in the same sequence, the figures for `COc1cc(N2CCOCC2)c(-c2cnn(C)c2)cc1Nc1ncc(C#N)c(Nc2ccc3nccnc3c2P(C)(C)=O)n1` [Compound 13, 4-((5-(dimethylphosphoryl)quinoxalin-6-yl)amino)-2-((2-methoxy-5-(1-methyl-1H-pyrazol-4-yl)-4-morpholinylphenyl)amino)pyrimidine-5-carbonitrile] were 7.62 nM, 0.89 nM, 398 nM, 43.4 nM and 84.3 nM.
Take `COc1cc(N2CCC3(CC2)CN(C)C3)c(-c2cnn(C)c2)cc1Nc1ncc(Br)c(Nc2ccc3nccnc3c2P(C)(C)=O)n1` [Compound 16, (6-((5-bromo-2-((2-methoxy-5-(1-methyl-1H-pyrazol-4-yl)-4-(2-methyl-2,7-diazaspiro[3.5]nonan-7-yl)phenyl)amino)pyrimidin-4-yl)amino)quinoxalin-5-yl)dimethylphosphine oxide formate]: the IC50 in assay [1] came out at 0.51 nM; in assay [3] it was 0.05 nM; in assay [5] (A-431, 72 hours), 51.3 nM. Besides, the GI50 in assay [2] was 13.2 nM; in assay [4], 23.5 nM.
`Cn1cc(-c2cc(Nc3ncc(Br)c(Nc4ccc5nccnc5c4P(C)(C)=O)n3)c3c(c2N2CCOCC2)CCO3)cn1` [Compound 17, (6-((5-bromo-2-((5-(1-methyl-1H-pyrazol-4-yl)-4-morpholino-2,3-dihydrobenzofuran-7-yl)amino)pyrimidin-4-yl)amino)quinoxalin-5-yl)dimethylphosphine oxide]: the IC50 in assay [1] was 3.61 nM; in assay [3], 0.08 nM; in assay [5] (A-431, 72 h) it was 67.8 nM. Also, the figures for the GI50 in assay [2] and in assay [4] were 1.28 nM and 2.13 nM, respectively.
Regarding `CCc1cnc(Nc2cc(-c3cnn(C)c3)c(N3CCOCC3)cc2OC)nc1Nc1ccc2nccnc2c1P(C)(C)=O` [Compound 31, (6-((5-ethyl-2-((2-methoxy-5-(1-methyl-1H-pyrazol-4-yl)-4-morpholinylphenyl)amino)pyrimidin-4-yl)amino)quinoxalin-5-yl)dimethylphosphine oxide], the IC50 amounted to 0.38 nM in assay [1]; 0.25 nM in assay [3]; 194 nM in assay [5] (A-431, 72 h). Also, the GI50 was 4.58 nM in assay [2] and 12.8 nM in assay [4].
On to `COc1cc(N2CCOCC2)c(-c2cnn(C)c2)cc1Nc1ncc(Br)c(Nc2cc(C)c3nccnc3c2P(C)(C)=O)n1` [Compound 33, (6-((5-bromo-2-((2-methoxy-5-(1-methyl-1H-pyrazol-4-yl)-4-morpholinylphenyl)amino)pyrimidin-4-yl)amino)-8-methylquinoxalin-5-yl)dimethylphosphine oxide], for which the IC50 stood at 50.2 nM in assay [1]; 0.26 nM in assay [3]; 1420 nM in assay [5] (A-431, 72 h). The GI50 stood at 10.1 nM in assay [2] and 32.5 nM in assay [4].
Taken in the same sequence, the figures for `COc1cc(S(=O)(=O)N(C)C)c(-c2cnn(C)c2)cc1Nc1ncc(Br)c(Nc2ccc3nccnc3c2P(C)(C)=O)n1` [Compound 35, 4-((5-bromo-4-((5-(dimethylphosphoryl)quinoxalin-6-yl)amino)pyrimidin-2-yl)amino)-5-methoxy-N,N-dimethyl-2-(1-methyl-1H-pyrazol-4-yl)benzenesulfonamide] were 384 nM, 11.9 nM, 752 nM, 93.2 nM and 327 nM.
Regarding `COc1cc(N2CCOCC2)c(-c2cnn(C)c2)cc1Nc1ncc(C2CC2)c(Nc2ccc3nccnc3c2P(C)(C)=O)n1` [Compound 41, (6-((5-cyclopropyl-2-((2-methoxy-5-(1-methyl-1H-pyrazol-4-yl)-4-morpholinylphenyl)amino)pyrimidin-4-yl)amino)quinoxalin-5-yl)dimethylphosphine oxide], the IC50 turned out to be 21.1 nM in assay [1]; 0.31 nM in assay [3]; 371 nM in assay [5] (A-431, 72 h). In addition, the GI50 was 8.64 nM in assay [2] and 34.5 nM in assay [4].
Taken in the same sequence, the figures for `COc1cc(N2CCOCC2)c(-c2cnn(C)c2)cc1Nc1nccc(Nc2ccc3nccnc3c2P(C)(C)=O)n1` [Compound 42, (6-((2-((2-methoxy-5-(1-methyl-1H-pyrazol-4-yl)-4-morpholinophenyl)amino)pyrimidin-4-yl)amino)quinoxalin-5-yl)dimethylphosphine oxide] were 166 nM, 1.24 nM, at least 5000 nM, 6.76 nM and 69.2 nM.
Consider `COc1cc(C2CCOCC2)c(-c2cnn(C)c2)cc1Nc1ncc(Br)c(Nc2ccc3nccnc3c2P(C)(C)=O)n1` [Compound 69], for which the IC50 amounted to 17.4 nM in assay [1]; 0.17 nM in assay [3]; 303 nM in assay [5] (A-431, 72 h). The GI50 in assay [2] is 5.91 nM; in assay [4], 19.2 nM.
`COc1cc(N2CCOCC2)c(-c2cnn(C)c2)cc1Nc1ncc(Br)c(Nc2cc3c(cc2P(C)(C)=O)CC3)n1` [Compound 79, (4-((5-bromo-2-((2-methoxy-5-(1-methyl-1H-pyrazol-4-yl)-4-morpholinylphenyl)amino)pyrimidin-4-yl)amino)bicyclo[4.2.0]octa-1,3,5-trien-3-yl)dimethylphosphine oxide]: the IC50 in assay [1] came to 29.9 nM; in assay [3], 0.45 nM; in assay [5] (A-431, 72 h), 633 nM. In addition, the GI50 in assay [2] is 9.89 nM; in assay [4], 13.5 nM.
Taken in the same sequence, the figures for `COc1cc(N2CCOCC2)c(-c2cnn(C)c2)cc1Nc1ncc(Br)c(Nc2ccccc2NS(C)(=O)=O)n1` [Compound 80] were 8.85 nM, 0.01 nM, 415 nM, 5.37 nM and 10.1 nM.
The matching figures for `Cn1cc(-c2cc(Nc3ncc(Br)c(Nc4ccc5nccnc5c4P(C)(C)=O)n3)c3c(c2)OCO3)cn1` [Compound 82, (6-((5-bromo-2-((6-(1-methyl-1H-pyrazol-4-yl)benzo[d][1,3]dioxol-4-yl)amino)pyrimidin-4-yl)amino)quinoxalin-5-yl)dimethylphosphine oxide]: 18.2 nM, 0.28 nM, 180 nM, 7.85 nM and 21.7 nM.
